According to ChEMBL document CHEMBL4118170, “Alkylsulfanyl analogs as potent α2δ ligands” (Bioorg Med Chem Lett, 2018):

Legend:
[1] = target: Voltage-dependent calcium channel subunit alpha-2/delta-1 (Homo sapiens) (UniProt P54289); test: Displacement of [3H]gabapentin from human voltage-gated Ca2+ channel alpha2delta1 subunit expressed in HEK293A cell membranes after 30 mins by liquid scintillation counting method
Mus musculus [2] = test: Analgesic activity in db/db mouse mechanical hyperalgesia model assessed as reversal of mechanical hyperalgesia at 100 mg/kg, po pretreated for 2 hrs by Von Frey test relative to control; type: functional
Mus musculus [3] = test: AUC in mouse at 10 mg/kg, po or 5 mg/kg, iv; type: ADME, organism-based; details: in vivo
[4] = Half life in mouse at 10 mg/kg, po or 5 mg/kg, iv; type: ADME, organism-based; details: in vivo
[5] = Oral bioavailability in mouse at 10 mg/kg; type: ADME, organism-based; details: in vivo
[6] = Clearance in mouse at 10 mg/kg, po or 5 mg/kg, iv; type: ADME, organism-based; details: in vivo
[7] = Cmax in mouse at 10 mg/kg, po or 5 mg/kg, iv; type: ADME, organism-based; details: in vivo
Mus musculus [8] = test: Effect on motor coordination in mouse at 30 mg/kg, po measured over 120 secs at 2 hrs post drug administration by rota rod test; type: ADME, organism-based; details: in vivo
Rattus norvegicus [9] = test: Analgesic activity in STZ-induced diabetic rat model assessed as pain threshold AUC (0 to 8 hrs) at 10 mg/kg, po by Von Frey test; type: functional, organism-based; set-up: dose 10 mg/kg, time < 8 hr
Mus musculus [10] = test: Effect on motor coordination in mouse at 100 mg/kg, po measured over 120 secs at 2 hrs post drug administration by rota rod test; type: ADME, organism-based; details: in vivo
Rattus norvegicus [11] = test: Analgesic activity in STZ-induced diabetic rat model assessed as pain threshold AUC (0 to 8 hrs) at 30 mg/kg, po by Von Frey test; type: functional, organism-based; set-up: time < 8 hr, dose 30 mg/kg
Rattus norvegicus [12] = test: Analgesic activity in STZ-induced diabetic rat model assessed as pain threshold AUC (0 to 8 hrs) at 50 mg/kg, po by Von Frey test; type: functional, organism-based; set-up: time < 8 hr, dose 50 mg/kg

Chain of Voltage-dependent calcium channel subunit alpha-2/delta-1 (Homo sapiens) (P54289 25-956 limits assumed): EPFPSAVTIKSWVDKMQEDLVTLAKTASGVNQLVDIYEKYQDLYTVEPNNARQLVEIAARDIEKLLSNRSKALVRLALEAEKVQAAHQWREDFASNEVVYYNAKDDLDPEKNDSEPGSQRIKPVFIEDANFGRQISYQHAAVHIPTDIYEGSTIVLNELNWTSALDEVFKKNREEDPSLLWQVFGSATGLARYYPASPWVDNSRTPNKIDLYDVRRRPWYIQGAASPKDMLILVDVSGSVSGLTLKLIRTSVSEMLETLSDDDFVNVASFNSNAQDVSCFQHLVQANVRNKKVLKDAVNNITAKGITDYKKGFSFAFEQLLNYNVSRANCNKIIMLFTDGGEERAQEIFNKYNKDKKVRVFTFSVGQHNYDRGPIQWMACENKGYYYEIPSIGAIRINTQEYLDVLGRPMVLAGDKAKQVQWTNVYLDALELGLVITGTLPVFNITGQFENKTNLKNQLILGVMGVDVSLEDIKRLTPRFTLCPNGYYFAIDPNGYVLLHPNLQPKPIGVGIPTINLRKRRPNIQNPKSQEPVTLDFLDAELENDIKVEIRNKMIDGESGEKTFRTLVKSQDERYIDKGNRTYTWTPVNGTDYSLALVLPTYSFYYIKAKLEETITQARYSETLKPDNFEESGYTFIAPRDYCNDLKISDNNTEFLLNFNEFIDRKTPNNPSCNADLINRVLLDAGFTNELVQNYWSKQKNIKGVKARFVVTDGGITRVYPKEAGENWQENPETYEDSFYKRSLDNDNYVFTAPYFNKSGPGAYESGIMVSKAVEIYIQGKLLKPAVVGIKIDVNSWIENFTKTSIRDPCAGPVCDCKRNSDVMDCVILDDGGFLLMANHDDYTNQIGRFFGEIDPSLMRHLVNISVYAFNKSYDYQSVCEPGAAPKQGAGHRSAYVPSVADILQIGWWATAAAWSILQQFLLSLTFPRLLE
Chain of Voltage-dependent calcium channel subunit alpha-2/delta-1 (Homo sapiens) (P54289 957-1103 limits assumed): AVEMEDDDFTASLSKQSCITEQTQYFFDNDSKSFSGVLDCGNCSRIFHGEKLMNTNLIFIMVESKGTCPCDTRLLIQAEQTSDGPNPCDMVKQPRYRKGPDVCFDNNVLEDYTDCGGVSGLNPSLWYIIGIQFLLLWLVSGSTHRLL

| SMILES | displacement potency (concentration) [1] | Activity (Mus musculus [2]) | AUC (Mus musculus [3]) | half-life [4] | bioavailability [5] | clearance [6] | Cmax [7] | other results |
| --- | --- | --- | --- | --- | --- | --- | --- | --- |
| CC(C)SCC(CN)CC(=O)O (centres undefined) | 19000 nM | – | – | – | – | – | – | – |
| CCS[C@H](C)C[C@H](CN)CC(=O)O | 290 nM | 3% | – | – | – | – | – | – |
| COC(C)CC(CN)CC(=O)O (centres undefined) | 410 nM | 4% | – | – | – | – | – | – |
| CSCC(CN)CC(=O)O (racemic) | 1000 nM | 9% | – | – | – | – | – | – |
| CCOC(C)CC(CN)CC(=O)O (centres undefined) | 970 nM | 22% | – | – | – | – | – | – |
| CSCC(C)C(CN)CC(=O)O (centres undefined) | 150 nM | 2% | – | – | – | – | – | – |
| CS[C@H](C)C[C@H](CN)CC(=O)O | 620 nM | 4% | 9980 ng·h/mL | 4.52 h | 100% | 17.5 mL/min/kg | 6220 ng/mL | – |
| COCC(C)C(CN)CC(=O)O (centres undefined) | 160 nM | 10% | – | – | – | – | – | – |
| CCS[C@@H](C)C[C@H](CN)CC(=O)O | 20 nM | 90% | 8140 ng·h/mL | 2.09 h | 28% | 5.78 mL/min/kg | 5610 ng/mL | Activity (Mus musculus [8]): Toxic; AUC (Rattus norvegicus [9]): 6.3 g·h; Activity (Mus musculus [10]): Toxic; AUC (Rattus norvegicus [11]): 19 g·h |
| CS[C@@H](C)C[C@@H](CN)CC(=O)O | 290 nM | 0% | 3020 ng·h/mL | 5.8 h | 45% | 23.8 mL/min/kg | 1610 ng/mL | – |
| CCSC(C)CC(CN)CC(=O)O (centres undefined) | 200 nM | 43% | – | – | – | – | – | – |
| COCC(CN)CC(=O)O (racemic) | 3200 nM | – | – | – | – | – | – | – |
| CS[C@H](C)C[C@@H](CN)CC(=O)O | 720 nM | 3% | 5800 ng·h/mL | 4.42 h | 100% | 31.7 mL/min/kg | 3590 ng/mL | – |
| CSC(C)C(CN)CC(=O)O (centres undefined) | 240 nM | 9% | – | – | – | – | – | – |
| COCCC(CN)CC(=O)O (racemic) | 240 nM | 17% | – | – | – | – | – | – |
| CS[C@@H](C)C[C@H](CN)CC(=O)O | 48 nM | 80% | 12500 ng·h/mL | 2.4 h | 100% | 17.6 mL/min/kg | 5190 ng/mL | Activity (Mus musculus [8]): Non-Toxic; AUC (Rattus norvegicus [12]): 18 g·h; Activity (Mus musculus [10]): Toxic; AUC (Rattus norvegicus [11]): 10 g·h |
| CCSCC(CN)CC(=O)O (racemic) | 1900 nM | – | – | – | – | – | – | – |
| CSCCC(CN)CC(=O)O (racemic) | 480 nM | 12% | – | – | – | – | – | – |
| CC(C)C[C@H](CN)CC(=O)O [PREGABALIN] | 39 nM | 98% | 18900 ng·h/mL | 2.54 h | 88% | 7.77 mL/min/kg | 1340 ng/mL | Activity (Mus musculus [8]): Toxic; AUC (Rattus norvegicus [9]): 5.8 to 17 g·h; Activity (Mus musculus [10]): Toxic; AUC (Rattus norvegicus [11]): 18 to 27 g·h |
| CSC(C)CC(CN)CC(=O)O (mixture of isomers) | 170 nM | 64% | – | – | – | – | – | – |
